Experimental data from patent US20240207454A1, “NEURO-BEHAVIORAL ASSAY FOR PHYSIOLOGICAL EVALUATION OF WATER-SOLUBLE ANESTHETICS” (Northeastern University, priority 2022, published 2024).
Where two headings read alike, the source gives them in different places.

Tests used:
[1] = test system: Apteronotus leptorhynchus; experiment: Neuro-behavioral assay: effect on EOD frequency; format: in vivo; conditions: 1 μM to 60 μM, exposure times of up to 48 hours; negative control
[2] = test system: Apteronotus leptorhynchus; experiment: Neuro-behavioral assay: chirps (EOD modulations); format: in vivo; conditions: 1 μM to 60 μM, exposure times of up to 48 hours; negative control
[3] = test system: Apteronotus leptorhynchus; experiment: Neuro-behavioral assay: locomotor activity and induction of anesthesia; format: in vivo; conditions: 1 μM to 60 μM, exposure times of up to 48 hours; negative control
Mauthner cell = conditions: cited from earlier work

Structure (SMILES) | Effect on EOD frequency [1] | Effect on EOD modulations [2] | Effect on locomotor activity [3] | Effect on generation and propagation of action potentials (Mauthner cell; 10 mg/L and 20 mg/L, exposure for more than 1 hour) | Effect on generation and propagation of action potentials (Mauthner cell; 40 mg/L, after 10-30 min) | Effect on generation and propagation of action potentials (Mauthner cell; 60 mg/L, exposure for at least 10-30 min)
NC12CC3CC(CC(C3)C1)C2 [Amantadine] | no effects | no effects | no effects | – | – | –
CC=Cc1ccc(O)c(OC)c1 [isoeugenol] | – | – | – | No effect | slight decrease in the slope of action potentials | additional aspects of the action potential were affected
